# From paper PMC12346198 (Cancers, 2025)
# Structures can show the parent of a compound that is named as a salt. Where two headings read alike, the source gives them in different places.
# Columns and labels:
# Primary Male Hepatocytes = assay: CCK-8 cytotoxicity assay, primary male hepatocytes; format: cell-based; conditions: Hepatocyte, 72 h, 72 h treatment
# Method: (§1) The cytotoxicity of compounds was determined by the CCK-8 assay (Cell Counting Kit-8, CK04, Dojindo Molecular Technologies, Kumamoto, Japan). Cell lines were plated at 10,000 cells/well in 96-well plates and incubated overnight to allow for adherence (5% CO2, 37 °C). […] Cells were placed back in the incubator for 72 h treatment. CCK-8 reagent was added, and plates were further incubated 1–4 h as directed by the supplier’s instructions. Optical density was measured using a Biotek Synergy H1 plate reader at 450 nm. Primary hepatocytes were plated at 30,000 cells or 50,000 cells/well and maintained according to the technical information bulletin provided by the supplier. Upon treatment, maintenance media were supplemented with 10% FBS and fresh test compound for all subsequent media changes, as directed.
# SNU423 = assay: CCK-8 cytotoxicity assay, SNU423; format: cell-based; conditions: Homo sapiens, SNU-423, 72 h treatment
# Method: as §1
# HepG2 = assay: CCK-8 cytotoxicity assay, HepG2; format: cell-based, human; conditions: Homo sapiens, HepG2, 72 h, 72 h treatment
# Method: as §1
# THLE-2 = assay: CCK-8 cytotoxicity assay, THLE-2; format: cell-based; conditions: Homo sapiens, 72 h treatment
# Method: as §1
# SNU475 = assay: CCK-8 cytotoxicity assay, SNU475; format: cell-based, human; conditions: 72 h treatment
# Method: as §1
# [1] = cited from earlier work
# SNU475 cells = assay: Hollow fiber assay (HFA) model of AR-SV HCC; format: in vivo; conditions: for Cell viability within hollow fibers (MTT assay): nude mice
# Excerpt: The hollow fiber procedures were based upon those developed by Hollingshead et al. with technical consultation kindly provided by Drs. Joanna Burdette and Dan Lantvit (University of Illinois Chicago, Chicago, IL, USA). […] In order to utilize a PO dosing approach with the HFA, we extended the traditional HFA timeline to establish angiogenesis, as noted in the literature. […] Hollow fibers (KrosFlo Implant Membranes, M138615, Repligen, Waltham, MA, USA) were filled with 3 × 10^6 SNU475 cells/mL per length and heat-sealed into 2 cm lengths on Day −1. On Day 0, three fibers were implanted into 20-week-old male outbred homozygous athymic nude mice (Foxn1^nu/Foxn1^nu, The Jackson Laboratory, Bar Harbor, ME, USA) subcutaneously parallel to the spine. Following a 14-day waiting period to allow for angiogenesis around the fibers, treatment was initiated. […] On Day 21, mice were euthanized and hollow fibers were explanted. The MTT assay was performed according to the KrosFlo Implant Membrane protocol utilizing Thiazolyl Blue Tetrazolium Bromide (M2128, MilliporeSigma, Burlington, MA, USA).
# [2] = Single-dose IV and PO pharmacokinetics in mice; format: in vivo, male C57BL/6 mice; conditions: for Oral bioavailability compared to parent compound: Figure S5D; for Expected plasma levels for up to 8 h post-dose: linearly scaled from PK data, BID 75 mg/kg niclosamide, 105.7 mg/kg valine–niclosamide, 87.3 mg/kg valine–compound #7, 62.9 mg/kg compound #7; for AUC: analyte = dosed compound; for Cmax: read-out: Cmax, Geo Mean; for Tmax: read-out: Tmax, Geo Mean; for clearance: single IV dose, 2 mg/kg or molar equivalent, read-out: Systemic clearance following an IV dose (converted)
# Method: The in-life study and quantitative analysis of plasma samples using LC/MS were performed at Charles River Laboratories, Inc. (Wilmington, MA, USA).
# [3] = Pharmacokinetic modeling of valine pro-drug conversion to parent; format: in vivo, mice; conditions: for k el: C57BL/6, mouse, plasma, model estimate, read-out: Kel, elimination rate constant of valine conjugate (converted); for Kmet, rate constant of conversion to parent compound: Kmet = Fm × Kel; for Fraction of pro-drug converted to parent (Fm): two-compartment model estimate
# Excerpt: A total of 36 mice with available PK data were included for non-linear mixed-effects analysis using NONMEM (version 7.5.0, ICON Development Solutions, Ellicott City, MD, USA), implementing the first-order conditional estimation with interaction (FOCE-I). R (version 4.2.0, R Foundation for Statistical Computing, Vienna, AUT, http://www.r-project.org) was used for visual diagnostics. […] The analyte (valine conjugate and parent compound) plasma concentration–time data were confirmed to have a biphasic distribution and elimination and were therefore fit separately to a linear two-compartment model with a depot for oral administration. Each model was parametrized in terms of clearance (CL), the volume of distribution of the central compartment (V1), intercompartmental clearance (Q), and the volume of the peripheral compartment (V3). Interindividual variability (IIV) for each parameter was assumed to be log-normally distributed, and residual variability (RUV) was described with a proportional error model. The PK parameter estimates from these independent models (parent compound or valine conjugate) were used as initial estimates for a combined model describing the conversion and disposition of the valine conjugate to the parent drug and associated metabolites. The model estimated the fraction of pro-drug converted to parent drug (Fm), which was used to calculate the first-order rate constant of metabolite formation (Kmet) = Fm × Kel. This rate constant was used to calculate the half-life of the conversion process and the amount of metabolite formed at complete conversion. The rate of metabolite formation was then calculated as the ratio of the amount of metabolite formed to the time required for complete conversion (~5 half-lives), as detailed in Figures S8–S11.
# [4] = Two-week tolerability study; conditions: daily PO for 14 days
# Method: Mice were group-housed under conditions of a constant photoperiod (12 h light/12 h dark), temperature, and humidity with ad libitum access to water and standard pelleted chow. […] Control mice were treated with the vehicle (DMSO–Cremophor EL–water, 3:15:82 by volume). Treatments were administered PO by gavage once daily for 14 days. Mouse weights were measured every 2 days. At the study endpoint, mice were euthanized approximately 2–4 h after the last dose. Blood was collected by cardiac puncture immediately after CO2 euthanasia. At necropsy, carcasses were examined for grossly visible lesions, and organ weights were measured (liver, kidneys, spleen, urogenital tract, testes, heart, lungs, brain). Whole blood and serum were submitted to the Comparative Pathology and Digital Imaging Shared Resource at the Ohio State Comprehensive Cancer Center (OSUCCC, Columbus, OH, USA) for the determination of complete blood counts and serum chemistry.
# [5] = IV, 2 mg/kg (valine conjugates 2 mg/kg EQV)
# [6] = IV, 2 mg/kg (valine conjugates 2 mg/kg EQV), non-compartmental analysis
# [7] = PO, 40 mg/kg (valine conjugates 40 mg/kg EQV)
# [8] = male, C57BL/6, mouse, plasma, iv, 2 mg/kg, IV, 2 mg/kg (valine conjugates 2 mg/kg EQV), non-compartmental analysis, read-out: AUCall, Geo Mean
# [9] = male, C57BL/6, mouse, plasma, iv, 2 mg/kg, IV, 2 mg/kg (valine conjugates 2 mg/kg EQV)
# [10] = male, C57BL/6, mouse, plasma, po, 40 mg/kg, PO, 40 mg/kg (valine conjugates 40 mg/kg EQV), non-compartmental analysis, read-out: AUCall, Geo Mean
# [11] = male, C57BL/6, mouse, plasma, po, 40 mg/kg, PO, 40 mg/kg (valine conjugates 40 mg/kg EQV)
# [12] = male, C57BL/6, mouse, plasma, po, 40 mg/kg, single PO dose, 40 mg/kg or molar equivalent, read-out: AUCall following an oral dose
# [13] = male, C57BL/6, mouse, plasma, IV, 2 mg/kg (valine conjugates 2 mg/kg EQV)
# [14] = male, C57BL/6, mouse, plasma, PO, 40 mg/kg (valine conjugates 40 mg/kg EQV)
# [15] = BID PO one week, niclosamide 75, valine–niclosamide 106.1, valine–compound #7 87.3, compound #7 62.9 mg/kg
structure (smiles),measurement,setting,value
"CNC(=O)c1ccc(N2C(=S)N(c3ccc(C#N)c(C(F)(F)F)c3)C(=O)C2(C)C)cc1F [Enzalutamide, enzalutamide]",IC50,Primary Male Hepatocytes,> 30 µM
"COc1cc2nccc(Oc3ccc(NC(=O)NC4CC4)c(Cl)c3)c2cc1C(N)=O [Lenvatinib, lenvatinib]",IC50,SNU423,> 30 µM
same,IC50,HepG2,> 30 µM
same,IC50,Primary Male Hepatocytes,> 30 µM
same,IC50,THLE-2,25.1 µM
same,IC50,"SNU475; Homo sapiens, SNU-475, 72 h",13 µM
"O=C(Nc1ccc([N+](=O)[O-])cc1Cl)c1cc(Cl)ccc1O [NEN, niclosamide ethanolamine salt]",Plasma niclosamide concentration 4 h after oral administration,[1]; 40 mg/kg dose PO,roughly 0.72 µM
same,Improvement of plasma niclosamide concentration over niclosamide,[1]; 4 h after oral administration,more than seven-fold
"CC(=O)O[C@H]1C(=O)[C@@]2(C)[C@H]([C@H](OC(=O)c3ccccc3)[C@]3(O)C[C@H](OC(=O)[C@H](O)[C@@H](NC(=O)c4ccccc4)c4ccccc4)C(C)=C1C3(C)C)[C@]1(OC(C)=O)CO[C@@H]1C[C@@H]2O [PTX, Paclitaxel, reference compound]",Cell viability within hollow fibers (MTT assay),SNU475 cells; 25 mg/kg IP every other day for one week,significant decrease in cell viability
"CNC(=O)c1cc(Oc2ccc(NC(=O)Nc3ccc(Cl)c(C(F)(F)F)c3)c(F)c2)ccn1 [Regorafenib, regorafenib]",IC50,SNU423,5.5 µM
same,IC50,HepG2,11.9 µM
same,IC50,Primary Male Hepatocytes,> 30 µM
same,IC50,THLE-2,> 30 µM
same,IC50,SNU475,1.63 µM
same,IC50,"SNU475; Homo sapiens, SNU-475, 72 h",1.6 µM
"CNC(=O)c1cc(Oc2ccc(NC(=O)Nc3ccc(Cl)c(C(F)(F)F)c3)cc2)ccn1 [Sorafenib, sorafenib]",IC50,SNU423,6.1 µM
same,IC50,HepG2,10.8 µM
same,IC50,Primary Male Hepatocytes,5.1 µM
same,IC50,THLE-2,> 30 µM
same,IC50,SNU475,4.2 µM
same,IC50,"SNU475; Homo sapiens, SNU-475, 72 h",4 µM
CC(C)[C@H](N)C(=O)Oc1ccc(Cl)cc1C(=O)Nc1ccc(C(F)(F)F)cc1Cl [valine–compound #7],Oral bioavailability compared to parent compound,[2],this was not observed
same,"HL_Lambda_z, Geo Mean",[2]; [5],4.20 h
same,"IV: Clobs, Geo Mean",[2]; [6],0.01 L/h
same,"HL_Lambda_z, Geo Mean",[2]; [7],6.46 h
same,"PO: Cl_Fobs, Geo Mean",[2]; [7],0.05 L/h
same,Expected plasma levels for up to 8 h post-dose,[2],3.7 µM
same,AUC,[2]; [8],13.5 µM·h
same,Cmax,[2]; [9],10.1 µM
same,AUC,[2]; [10],62.1 µM·h
same,Cmax,[2]; [11],7.71 µM
same,AUC,[2]; [12],62.1 µM·h
same,Tmax,[2]; [13],4.8 min
same,Tmax,[2]; [14],75.6 min
same,clearance,"[2]; male, C57BL/6, mouse, plasma",0.167 mL/min
same,k el,[3],0.00147 s⁻¹
same,"Kmet, rate constant of conversion to parent compound",[3],1.32 h⁻¹
same,Fraction of pro-drug converted to parent (Fm),[3],25%
same,Toxicity in HFA study mice,"SNU475 cells; 87.3 mg/kg BID PO, two mice excluded",apparent toxicity
same,Cell viability within hollow fibers (MTT assay),SNU475 cells; [15],no differences in cell viability
CC(C)[C@H](N)C(=O)Oc1ccc(Cl)cc1C(=O)Nc1ccc([N+](=O)[O-])cc1Cl [valine–niclosamide],Oral bioavailability compared to parent compound,[2],significantly higher oral bioavailability
same,"HL_Lambda_z, Geo Mean",[2]; [5],1.54 h
same,"IV: Clobs, Geo Mean",[2]; [6],0.02 L/h
same,Fold improvement in Cmax over orally administered niclosamide,[2]; PO,6.8 fold
same,Fold increase in systemic exposure over orally administered niclosamide,[2]; PO,14.9 fold
same,"HL_Lambda_z, Geo Mean",[2]; [7],4.11 h
same,"PO: Cl_Fobs, Geo Mean",[2]; [7],0.05 L/h
same,Fold increase in plasma levels at 4 h over niclosamide,"[2]; PO, molar equivalent of 40 mg/kg",more than 16 fold
same,Expected plasma levels for up to 8 h post-dose,[2],~3.5 µM
same,AUC,[2]; [8],7.52 µM·h
same,Cmax,[2]; [9],11.2 µM
same,AUC,[2]; [10],48.6 µM·h
same,Cmax,[2]; [11],11.2 µM
same,AUC,[2]; [12],48.6 µM·h
same,concentration at 4 h,"[2]; male, C57BL/6, mouse, plasma, po, 40 mg/kg, read-out: Plasma level at 4 h after a molar equivalent oral dose",3.59 µM
same,Tmax,[2]; [13],4.8 min
same,Tmax,[2]; [14],40.2 min
same,clearance,"[2]; male, C57BL/6, mouse, plasma",0.333 mL/min
same,k el,[3],0.000789 s⁻¹
same,"Kmet, rate constant of conversion to parent compound",[3],0.64 h⁻¹
same,Fraction of pro-drug converted to parent (Fm),[3],23%
same,Cell viability within hollow fibers (MTT assay),SNU475 cells; [15],no differences in cell viability
same,Impact on body weight,"[4]; 14.1, 56.4, 141.0 mg/kg",no significant impact
same,Impact on liver enzyme levels,"[4]; ALT, AST, albumin",no significant impact
same,Spleen weights as a percentage of body weight,[4]; versus vehicle,increase at the highest dose level
